Experiment [1] deals with T1, Endothelin receptor type B (Homo sapiens, UniProt P24530).
T1 sequence (P24530 whole entry): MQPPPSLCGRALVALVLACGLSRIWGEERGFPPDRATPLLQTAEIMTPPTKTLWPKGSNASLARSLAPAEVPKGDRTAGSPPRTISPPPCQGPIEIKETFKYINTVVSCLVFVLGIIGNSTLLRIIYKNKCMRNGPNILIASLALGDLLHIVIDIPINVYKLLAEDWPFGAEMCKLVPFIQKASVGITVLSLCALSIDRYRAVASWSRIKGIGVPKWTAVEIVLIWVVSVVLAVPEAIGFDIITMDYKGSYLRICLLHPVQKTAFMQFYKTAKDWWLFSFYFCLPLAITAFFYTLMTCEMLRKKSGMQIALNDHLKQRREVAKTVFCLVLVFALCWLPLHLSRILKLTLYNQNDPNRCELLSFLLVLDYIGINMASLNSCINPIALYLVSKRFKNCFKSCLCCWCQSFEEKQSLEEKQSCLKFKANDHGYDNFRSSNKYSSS

For another experiment, the target named is T2, B1 bradykinin receptor (Homo sapiens, UniProt P46663).
T2 sequence (P46663 whole entry): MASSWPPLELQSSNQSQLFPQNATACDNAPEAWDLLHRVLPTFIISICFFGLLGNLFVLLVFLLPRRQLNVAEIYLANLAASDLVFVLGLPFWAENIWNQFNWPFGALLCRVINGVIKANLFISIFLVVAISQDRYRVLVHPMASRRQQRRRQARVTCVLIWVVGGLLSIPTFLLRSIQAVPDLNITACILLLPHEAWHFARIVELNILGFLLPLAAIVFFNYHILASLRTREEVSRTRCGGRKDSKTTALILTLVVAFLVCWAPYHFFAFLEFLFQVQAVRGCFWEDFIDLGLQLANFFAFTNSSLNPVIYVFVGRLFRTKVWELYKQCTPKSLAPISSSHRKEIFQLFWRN

Experiment [2] addresses Voltage-dependent N-type calcium channel subunit alpha-1B (Rattus norvegicus, UniProt Q02294). Type of experiment: functional.
Experiment [3] has as its target T3, Corticotropin-releasing factor receptor 1 (Homo sapiens, UniProt P34998).
T3 sequence (P34998 whole entry): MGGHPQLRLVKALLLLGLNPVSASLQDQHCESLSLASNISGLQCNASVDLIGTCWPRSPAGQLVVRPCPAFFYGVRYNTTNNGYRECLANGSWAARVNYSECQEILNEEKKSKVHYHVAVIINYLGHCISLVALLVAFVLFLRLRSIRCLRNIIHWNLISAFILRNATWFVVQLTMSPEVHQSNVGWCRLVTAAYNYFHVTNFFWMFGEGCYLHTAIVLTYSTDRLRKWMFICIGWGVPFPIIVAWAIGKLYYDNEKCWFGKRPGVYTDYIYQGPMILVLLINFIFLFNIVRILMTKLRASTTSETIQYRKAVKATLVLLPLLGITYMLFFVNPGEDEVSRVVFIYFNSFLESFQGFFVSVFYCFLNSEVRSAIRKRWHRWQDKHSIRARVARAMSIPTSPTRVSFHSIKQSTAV

For experiment [4], the target named is T4, Gastric inhibitory polypeptide receptor (Homo sapiens, UniProt P48546).
T4 sequence (P48546 whole entry): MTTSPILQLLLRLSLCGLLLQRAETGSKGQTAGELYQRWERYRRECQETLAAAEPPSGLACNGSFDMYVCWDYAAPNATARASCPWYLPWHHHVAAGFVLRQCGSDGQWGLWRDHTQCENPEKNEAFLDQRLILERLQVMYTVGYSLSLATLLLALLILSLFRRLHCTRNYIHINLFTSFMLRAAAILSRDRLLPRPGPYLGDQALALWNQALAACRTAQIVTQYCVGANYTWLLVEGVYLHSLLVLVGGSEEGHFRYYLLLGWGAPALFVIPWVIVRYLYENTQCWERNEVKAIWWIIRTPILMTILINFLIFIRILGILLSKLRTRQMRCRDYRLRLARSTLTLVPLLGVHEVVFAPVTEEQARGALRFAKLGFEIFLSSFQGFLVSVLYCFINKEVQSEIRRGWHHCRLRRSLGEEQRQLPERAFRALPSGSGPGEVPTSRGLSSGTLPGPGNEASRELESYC

A further experiment addresses Histamine H2 receptor (Homo sapiens, UniProt P25021).
The target in experiment [5] is Gamma-aminobutyric acid receptor subunit alpha-1 (Rattus norvegicus, UniProt P62813).
Experiment [6] addresses Sodium channel protein type 5 subunit alpha (Homo sapiens, UniProt Q14524). Type of experiment: functional, cell-based.
Experiment [7] concerns the target Gamma-aminobutyric acid receptor subunit alpha-1/alpha-2/beta-2/gamma-2 (Homo sapiens, UniProt P14867+P18507+P47869+P47870). Type of experiment: functional, cell-based.

A value given as a limit tells only on which side of the number the result lay.
Also: assay procedure not described here.

Sequence of Voltage-dependent N-type calcium channel subunit alpha-1B (Q02294 whole entry): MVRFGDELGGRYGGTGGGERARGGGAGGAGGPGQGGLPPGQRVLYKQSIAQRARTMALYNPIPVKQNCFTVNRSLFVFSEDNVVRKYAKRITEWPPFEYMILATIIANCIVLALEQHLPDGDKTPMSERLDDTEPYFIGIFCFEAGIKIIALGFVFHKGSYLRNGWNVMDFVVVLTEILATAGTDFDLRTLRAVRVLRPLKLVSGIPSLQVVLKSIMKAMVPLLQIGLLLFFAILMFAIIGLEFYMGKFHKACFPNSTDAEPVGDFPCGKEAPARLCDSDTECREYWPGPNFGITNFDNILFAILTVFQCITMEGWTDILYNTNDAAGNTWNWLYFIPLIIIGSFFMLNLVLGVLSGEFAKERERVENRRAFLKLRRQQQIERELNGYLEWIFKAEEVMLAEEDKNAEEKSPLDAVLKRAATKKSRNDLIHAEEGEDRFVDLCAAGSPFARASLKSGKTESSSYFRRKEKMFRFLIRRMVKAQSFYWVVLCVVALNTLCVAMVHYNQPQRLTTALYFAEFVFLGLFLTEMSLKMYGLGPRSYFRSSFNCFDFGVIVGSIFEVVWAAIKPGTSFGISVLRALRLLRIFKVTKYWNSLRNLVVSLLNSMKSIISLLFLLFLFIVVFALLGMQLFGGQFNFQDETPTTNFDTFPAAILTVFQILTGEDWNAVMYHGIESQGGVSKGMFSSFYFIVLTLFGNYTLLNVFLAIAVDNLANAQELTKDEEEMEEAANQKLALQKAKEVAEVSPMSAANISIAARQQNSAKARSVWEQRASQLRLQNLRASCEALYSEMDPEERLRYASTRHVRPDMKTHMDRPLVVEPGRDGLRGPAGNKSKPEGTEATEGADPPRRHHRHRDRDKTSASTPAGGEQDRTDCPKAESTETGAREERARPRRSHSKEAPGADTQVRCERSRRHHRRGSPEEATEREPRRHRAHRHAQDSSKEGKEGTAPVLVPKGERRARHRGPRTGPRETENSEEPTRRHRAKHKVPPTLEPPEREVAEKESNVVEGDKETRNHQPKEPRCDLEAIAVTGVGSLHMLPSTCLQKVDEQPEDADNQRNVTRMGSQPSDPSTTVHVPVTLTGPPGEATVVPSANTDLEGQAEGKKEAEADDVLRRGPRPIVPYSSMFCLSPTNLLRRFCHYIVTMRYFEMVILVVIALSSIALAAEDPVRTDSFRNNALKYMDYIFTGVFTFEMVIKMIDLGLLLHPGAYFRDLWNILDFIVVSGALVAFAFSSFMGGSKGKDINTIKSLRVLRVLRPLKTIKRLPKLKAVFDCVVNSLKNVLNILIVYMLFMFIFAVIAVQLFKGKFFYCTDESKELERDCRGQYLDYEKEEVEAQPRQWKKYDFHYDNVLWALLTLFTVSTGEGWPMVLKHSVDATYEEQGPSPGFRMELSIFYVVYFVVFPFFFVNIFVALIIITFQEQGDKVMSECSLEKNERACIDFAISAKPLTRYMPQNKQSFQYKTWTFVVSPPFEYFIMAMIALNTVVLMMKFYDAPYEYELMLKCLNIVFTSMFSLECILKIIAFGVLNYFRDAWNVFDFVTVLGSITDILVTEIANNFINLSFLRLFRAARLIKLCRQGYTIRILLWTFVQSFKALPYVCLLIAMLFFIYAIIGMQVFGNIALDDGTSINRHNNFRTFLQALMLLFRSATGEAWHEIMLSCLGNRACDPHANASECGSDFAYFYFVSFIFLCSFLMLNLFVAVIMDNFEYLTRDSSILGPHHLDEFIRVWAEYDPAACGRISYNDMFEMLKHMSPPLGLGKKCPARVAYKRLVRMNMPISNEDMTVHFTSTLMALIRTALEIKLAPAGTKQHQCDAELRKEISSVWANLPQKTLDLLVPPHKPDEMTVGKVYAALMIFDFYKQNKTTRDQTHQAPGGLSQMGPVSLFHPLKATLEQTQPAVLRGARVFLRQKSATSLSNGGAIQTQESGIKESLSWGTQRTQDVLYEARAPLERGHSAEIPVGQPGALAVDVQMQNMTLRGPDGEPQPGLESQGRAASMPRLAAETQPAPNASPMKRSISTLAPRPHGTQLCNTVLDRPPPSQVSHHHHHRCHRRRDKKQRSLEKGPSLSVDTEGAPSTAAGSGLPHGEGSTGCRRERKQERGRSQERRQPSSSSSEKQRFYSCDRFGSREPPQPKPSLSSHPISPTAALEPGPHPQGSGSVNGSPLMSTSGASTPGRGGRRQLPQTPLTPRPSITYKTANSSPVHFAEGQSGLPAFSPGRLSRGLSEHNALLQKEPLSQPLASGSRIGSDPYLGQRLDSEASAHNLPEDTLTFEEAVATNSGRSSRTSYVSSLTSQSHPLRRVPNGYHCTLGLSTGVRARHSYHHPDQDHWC
Sequence of Gamma-aminobutyric acid receptor subunit alpha-1/alpha-2/beta-2/gamma-2 (P14867 whole entry): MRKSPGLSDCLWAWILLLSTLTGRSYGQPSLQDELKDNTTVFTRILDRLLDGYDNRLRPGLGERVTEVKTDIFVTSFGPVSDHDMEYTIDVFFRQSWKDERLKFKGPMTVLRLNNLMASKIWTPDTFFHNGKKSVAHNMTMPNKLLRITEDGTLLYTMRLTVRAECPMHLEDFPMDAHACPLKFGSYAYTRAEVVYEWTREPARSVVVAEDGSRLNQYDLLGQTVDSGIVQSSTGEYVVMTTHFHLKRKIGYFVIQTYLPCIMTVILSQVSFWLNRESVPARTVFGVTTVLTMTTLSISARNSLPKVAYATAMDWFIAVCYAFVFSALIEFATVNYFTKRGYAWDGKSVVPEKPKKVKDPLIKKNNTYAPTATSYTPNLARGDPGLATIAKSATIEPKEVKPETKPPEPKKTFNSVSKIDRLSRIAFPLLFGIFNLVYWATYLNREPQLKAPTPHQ
Sequence of Gamma-aminobutyric acid receptor subunit alpha-1/alpha-2/beta-2/gamma-2 (P47870 whole entry): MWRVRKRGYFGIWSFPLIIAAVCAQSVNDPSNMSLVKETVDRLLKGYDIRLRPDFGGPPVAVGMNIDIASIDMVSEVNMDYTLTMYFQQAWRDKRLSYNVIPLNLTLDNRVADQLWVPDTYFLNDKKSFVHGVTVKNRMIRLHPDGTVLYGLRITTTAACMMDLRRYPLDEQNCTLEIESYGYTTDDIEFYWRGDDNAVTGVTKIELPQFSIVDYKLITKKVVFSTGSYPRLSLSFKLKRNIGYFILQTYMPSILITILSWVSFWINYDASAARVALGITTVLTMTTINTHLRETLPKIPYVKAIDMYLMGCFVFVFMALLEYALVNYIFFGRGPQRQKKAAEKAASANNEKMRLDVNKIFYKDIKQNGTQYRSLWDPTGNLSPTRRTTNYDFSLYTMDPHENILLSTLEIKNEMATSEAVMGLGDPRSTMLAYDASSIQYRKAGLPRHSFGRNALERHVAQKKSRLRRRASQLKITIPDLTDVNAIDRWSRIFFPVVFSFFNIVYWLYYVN
Sequence of Gamma-aminobutyric acid receptor subunit alpha-1/alpha-2/beta-2/gamma-2 (P18507 whole entry): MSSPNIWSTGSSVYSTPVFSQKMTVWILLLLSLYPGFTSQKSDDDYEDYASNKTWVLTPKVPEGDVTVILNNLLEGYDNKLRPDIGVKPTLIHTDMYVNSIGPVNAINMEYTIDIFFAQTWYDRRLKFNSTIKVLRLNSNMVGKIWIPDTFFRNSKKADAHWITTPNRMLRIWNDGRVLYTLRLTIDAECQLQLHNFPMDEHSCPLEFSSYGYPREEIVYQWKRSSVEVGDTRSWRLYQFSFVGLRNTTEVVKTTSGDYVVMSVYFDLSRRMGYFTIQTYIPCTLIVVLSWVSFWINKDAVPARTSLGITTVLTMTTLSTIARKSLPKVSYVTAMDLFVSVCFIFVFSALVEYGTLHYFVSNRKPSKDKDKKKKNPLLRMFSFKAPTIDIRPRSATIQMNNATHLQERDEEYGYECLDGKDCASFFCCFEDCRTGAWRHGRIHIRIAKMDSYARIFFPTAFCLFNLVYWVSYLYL
Sequence of Gamma-aminobutyric acid receptor subunit alpha-1/alpha-2/beta-2/gamma-2 (P47869 whole entry): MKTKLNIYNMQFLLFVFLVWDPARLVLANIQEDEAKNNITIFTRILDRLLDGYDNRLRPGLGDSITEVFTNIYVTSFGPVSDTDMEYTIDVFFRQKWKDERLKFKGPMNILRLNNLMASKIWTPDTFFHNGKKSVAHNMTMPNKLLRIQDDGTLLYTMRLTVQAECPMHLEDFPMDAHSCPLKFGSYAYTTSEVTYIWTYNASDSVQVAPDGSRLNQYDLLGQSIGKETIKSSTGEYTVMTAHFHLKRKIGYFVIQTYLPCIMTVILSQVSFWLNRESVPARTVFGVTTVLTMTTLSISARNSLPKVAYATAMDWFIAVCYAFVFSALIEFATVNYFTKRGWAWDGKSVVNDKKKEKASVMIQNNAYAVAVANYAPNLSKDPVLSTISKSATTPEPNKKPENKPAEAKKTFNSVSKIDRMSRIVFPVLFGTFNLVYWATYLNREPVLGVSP
Sequence of Gamma-aminobutyric acid receptor subunit alpha-1 (P62813 whole entry): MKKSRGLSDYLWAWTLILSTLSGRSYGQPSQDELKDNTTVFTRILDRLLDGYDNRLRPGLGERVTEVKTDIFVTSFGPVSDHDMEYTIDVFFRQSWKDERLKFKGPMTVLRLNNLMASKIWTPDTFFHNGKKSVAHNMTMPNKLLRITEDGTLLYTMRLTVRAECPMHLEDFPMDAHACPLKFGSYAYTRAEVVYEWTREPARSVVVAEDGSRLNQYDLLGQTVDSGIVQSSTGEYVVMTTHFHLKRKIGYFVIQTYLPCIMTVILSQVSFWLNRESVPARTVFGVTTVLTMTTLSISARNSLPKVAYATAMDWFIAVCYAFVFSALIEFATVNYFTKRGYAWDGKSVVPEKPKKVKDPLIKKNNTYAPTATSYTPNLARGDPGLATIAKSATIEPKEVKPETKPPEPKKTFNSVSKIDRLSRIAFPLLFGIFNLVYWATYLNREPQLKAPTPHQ
Sequence of Histamine H2 receptor (P25021 whole entry): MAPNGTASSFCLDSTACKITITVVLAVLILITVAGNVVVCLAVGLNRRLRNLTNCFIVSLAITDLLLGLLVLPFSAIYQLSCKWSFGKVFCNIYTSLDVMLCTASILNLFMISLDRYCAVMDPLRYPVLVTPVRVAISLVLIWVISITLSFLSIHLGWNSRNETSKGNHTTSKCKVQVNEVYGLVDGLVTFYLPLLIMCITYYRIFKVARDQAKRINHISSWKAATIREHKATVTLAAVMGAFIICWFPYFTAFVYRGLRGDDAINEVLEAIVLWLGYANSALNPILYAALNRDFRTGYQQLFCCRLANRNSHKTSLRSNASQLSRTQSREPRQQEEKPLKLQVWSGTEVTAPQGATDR

Take `CCc1nn(CCCN2CCN(c3cccc(Cl)c3)CC2)c(=O)n1CCOc1ccccc1` [NEFAZODONE]: the concentration at half-maximal activity (AC50) in experiment [1] is more than 30 µM; on B1 bradykinin receptor it was more than 30 µM; in experiment [2] it was more than 10 µM; in [3], more than 30 µM; in experiment [4] it was more than 30 µM.
As for `NC(N)=Nc1nc(CSCCC(N)=NS(N)(=O)=O)cs1` [FAMOTIDINE], the AC50 in experiment [1] was more than 30 µM; on B1 bradykinin receptor, more than 30 µM; in experiment [2] it was more than 10 µM; in experiment [3], more than 30 µM; in [4] it was more than 30 µM; at Histamine H2 receptor, 0.0063 µM.
Consider `NS(=O)(=O)c1cc2c(cc1Cl)NCNS2(=O)=O` [HYDROCHLOROTHIAZIDE], for which the half-maximal activity concentration (AC50) was more than 30 µM in [1]; more than 30 µM on B1 bradykinin receptor; more than 10 µM in experiment [2]; more than 30 µM in [3]; more than 30 µM in experiment [4]; more than 10 µM on Histamine H2 receptor.
In experiment [5], `O=C1c2ccccc2C(=O)C1C(=O)C(c1ccccc1)c1ccccc1` [DIPHENADIONE] yielded an AC50 of more than 30 µM.
In [5], `CC(=O)OCC(=O)[C@@]1(O)CC[C@H]2[C@@H]3CCC4=CC(=O)CC[C@]4(C)[C@H]3C(=O)C[C@@]21C` [CORTISONE ACETATE] came in with an AC50 of more than 30 µM.
In turn, `CCCS(=O)(=O)Nc1ccc(F)c(C(=O)c2c[nH]c3ncc(-c4ccc(Cl)cc4)cc23)c1F` [VEMURAFENIB] returned an AC50 in [6] of more than 30 µM.
Regarding `CCc1ccc(CCOc2ccc(CC3SC(=O)NC3=O)cc2)nc1` (configuration not stated) [PIOGLITAZONE], the concentration at half-maximal activity (AC50) in [1] is more than 30 µM; on B1 bradykinin receptor it was more than 30 µM; in experiment [2], more than 10 µM; in experiment [3], more than 30 µM; in experiment [4], more than 30 µM; in [5], more than 30 µM. The concentration at half-maximal activity (AC50) on Histamine H2 receptor was more than 10 µM.
Take `N[C@@H](C(=O)N[C@@H]1C(=O)N2C(C(=O)O)=C(Cl)CS[C@H]12)c1ccccc1` [CEFACLOR ANHYDROUS]: the AC50 in [7] is more than 30 µM.
The compound `O=C1CC[C@@]2(O)[C@H]3Cc4ccc(O)c5c4[C@@]2(CCN3CC2CC2)[C@H]1O5` [NALTREXONE] came in with an AC50 in [5] of more than 30 µM.
With `CC(C(=O)O)c1ccc(N2CC=CC2)c(Cl)c1` (configuration not stated) [PIRPROFEN], the AC50 in experiment [1] was more than 30 µM; at B1 bradykinin receptor, more than 30 µM; in [2] it was more than 10 µM; in experiment [3] it was more than 30 µM; in [4], more than 30 µM; at Histamine H2 receptor, more than 10 µM.
Regarding `Nc1nc(N)c2nc(-c3ccccc3)c(N)nc2n1`, the half-maximal activity concentration (AC50) in [1] was more than 30 µM; on B1 bradykinin receptor, more than 10 µM; in [2] it was more than 10 µM; in [3], more than 30 µM; in [4] it was more than 30 µM; at Histamine H2 receptor, more than 10 µM.
Regarding `NC(=O)c1ncn([C@@H]2O[C@H](CO)[C@@H](O)[C@H]2O)c1O` [MIZORIBINE], the half-maximal activity concentration (AC50) in experiment [7] was more than 30 µM.
As to `COc1cc(Nc2c(C#N)cnc3cc(OCCCN4CCN(C)CC4)c(OC)cc23)c(Cl)cc1Cl` [BOSUTINIB], the AC50 in [1] is more than 30 µM; on B1 bradykinin receptor, more than 30 µM; in [2], more than 10 µM; in experiment [3] it was more than 30 µM; in experiment [4], more than 30 µM; in experiment [5], more than 30 µM.
With `NC(=O)c1cnccn1` [PYRAZINAMIDE], the AC50 was more than 30 µM in experiment [1]; more than 30 µM on B1 bradykinin receptor; more than 10 µM in experiment [2]; more than 30 µM in [3]; more than 30 µM in [4]; more than 10 µM on Histamine H2 receptor.
On to `COc1cc2c(cc1OC)C(=O)C(CC1CCN(Cc3ccccc3)CC1)C2` (configuration not stated) [DONEPEZIL], for which the half-maximal activity concentration (AC50) in experiment [1] is more than 30 µM; at B1 bradykinin receptor, more than 30 µM; in [3], more than 30 µM; in experiment [4] it was more than 30 µM; on Histamine H2 receptor it was more than 10 µM.
As to `Cc1ccc(O)c2ncccc12` [TILIQUINOL], the AC50 in experiment [5] is more than 30 µM.
In turn, `C#C[C@]1(O)CC[C@H]2[C@@H]3CCC4=CC(=O)CC[C@@H]4[C@H]3CC[C@@]21CC` [LEVONORGESTREL] had a half-maximal activity concentration (AC50) in experiment [5] of 3.44 µM.
Still for that read-out and setting: in the case of `CC(=O)Oc1c(C)cc(OCC(O)CNC(C)C)c(C)c1C` (configuration not stated) [METIPRANOLOL] it was more than 30 µM.
With `COC(=O)[C@@H]1CC2=CC(=O)CC[C@]2(C)[C@@]23O[C@@H]2C[C@@]2(C)[C@@H](CC[C@@]24CCC(=O)O4)[C@H]13` [EPLERENONE], the concentration at half-maximal activity (AC50) was more than 30 µM in experiment [7]; more than 30 µM in experiment [1]; more than 30 µM at B1 bradykinin receptor; more than 10 µM in experiment [2]; more than 30 µM in experiment [3]; more than 30 µM in experiment [4]. This compound also displayed an AC50 on Histamine H2 receptor of more than 10 µM.
With `Cc1cc2c(cc1CC(=O)c1sccc1S(=O)(=O)Nc1onc(C)c1Cl)OCO2` [SITAXENTAN], the concentration at half-maximal activity (AC50) in [5] is more than 30 µM.
With `OCCN1CCN(CCCN2c3ccccc3C=Cc3ccccc32)CC1` [OPIPRAMOL], the half-maximal activity concentration (AC50) in experiment [7] and in experiment [5] was more than 30 µM in each case.
`COC(=O)N[C@H](C(=O)N1CCC[C@H]1c1nc(-c2ccc(-c3ccc(-c4c[nH]c([C@@H]5CCCN5C(=O)[C@@H](NC(=O)OC)C(C)C)n4)cc3)cc2)c[nH]1)C(C)C`: the AC50 in experiment [6] was more than 30 µM.
`C(=N\NC1=NCCN1)/c1c2ccccc2c(/C=N/NC2=NCCN2)c2ccccc12` [BISANTRENE] yielded an AC50 in [5] of more than 30 µM.
In [5], `CN1CCCC(CN2c3ccccc3Sc3ccccc32)C1` (configuration not stated) [MEPAZINE] had an AC50 of more than 30 µM.
With `CN(C)CCCN1c2ccccc2CCc2ccc(Cl)cc21` [CLOMIPRAMINE], the AC50 in experiment [2] is more than 10 µM.
As for `Oc1ncnc2[nH]ncc12` [ALLOPURINOL], the AC50 was more than 30 µM in experiment [1]; more than 30 µM on B1 bradykinin receptor; more than 10 µM in [2]; more than 30 µM in experiment [3]; more than 30 µM in [4]; more than 10 µM on Histamine H2 receptor.
For `O=C(CCCCCCC(=O)Nc1ccccc1)NO` [VORINOSTAT], the AC50 in experiment [7] was more than 30 µM; in [1] it was more than 10 µM; on B1 bradykinin receptor it was more than 10 µM; in [2], more than 10 µM; at Histamine H2 receptor it was more than 10 µM.
In turn, `CCC(=O)O[C@H]1[C@H](O[C@@H]2[C@@H](C)[C@H](O[C@H]3C[C@@](C)(OC)[C@@H](O)[C@H](C)O3)[C@@H](C)C(=O)O[C@H](CC)[C@@](C)(O)[C@H](O)[C@@H](C)C(=O)[C@H](C)C[C@@]2(C)O)O[C@H](C)C[C@@H]1N(C)C` [ERYTHROMYCIN PROPIONATE] gave an AC50 in experiment [5] of more than 30 µM.
As to `CCN(CC)CCNC(=O)c1cc(Cl)c(N)cc1OC` [METOCLOPRAMIDE], the AC50 was more than 30 µM in experiment [1]; more than 30 µM on B1 bradykinin receptor; more than 10 µM in experiment [2]; more than 30 µM in [3]; more than 30 µM in experiment [4]; more than 10 µM on Histamine H2 receptor.
With `C[C@H]1O[C@H](O[C@H]2[C@H](O)[C@@H](O)[C@@H](O[C@H]3[C@H](O)[C@@H](O)C(O)O[C@@H]3CO)O[C@@H]2CO)[C@H](O)[C@@H](O)[C@@H]1N[C@H]1C=C(CO)[C@@H](O)[C@H](O)[C@H]1O` (some centres not stated) [ACARBOSE], the AC50 in [1] is more than 30 µM; at B1 bradykinin receptor it was more than 30 µM; in [2] it was more than 10 µM; in experiment [3], more than 30 µM; in experiment [4] it was more than 30 µM; in experiment [5], more than 30 µM. Besides, the AC50 at Histamine H2 receptor was more than 10 µM.
For the compound `COC(=O)C1=C(C)NC(C)=C(C(=O)OCC(C)C)C1c1ccccc1[N+](=O)[O-]` (configuration not stated) [NISOLDIPINE], in experiment [6], half-maximal activity (AC50) was put at 8.6 µM.

Values taken from ChEMBL document CHEMBL5291721, “A preclinical secondary pharmacology resource illuminates target-adverse drug reaction associations of marketed drugs” (Nat Commun, 2023).
